Structures can show the parent of a compound that is named as a salt.
Experiments:
[1] = test system: metrazol induced convulsions; test: Antimetrazol activity in mice; format: in vivo; conditions: 10 mg/kg
Description: Experiments were also performed to determine the physiological relevance of neuroactive steroid and GABA receptor interactions by assessing the ability of compounds of the present invention to prevent metrazol induced convulsions in mice. Mice were injected with various doses of the test compounds of the invention, 10 minutes prior to the injection of metrazol. The time to onset of myoclonus (presence of forelimb clonic activity) induced by metrazol was determined by observing each mouse for a period of 30 minutes. In control mice, metrazol (85 mg/kg) will induce convulsion in 95% of the animals.
The anticonvulsant tests are similar to that described above.

[2] = target: GABA receptor complex (GRC); test: [35S]TBPS binding in rat cerebral cortex P2 homogenate; conditions: for IC50: concentration to inhibit 50% of control [35S]TBPS binding, 2 nM [35S]TBPS; for IMAX (maximum inhibition): maximum inhibition of [35S]TBPS binding
Text: To those skilled in the art, it is known that the modulation of [^35S]t-butylbicyclophosphorothionate ([^35S]TBPS) binding is a measure of the potency and efficacy of drugs acting at the GRC, which drugs may be of potential therapeutic value in the treatment of stress, anxiety, and seizure disorders (Squires, R. F., et al., Mol, Pharmacol., 23:326 (1983); Lawrence, L. J., et al., Biochem. Biophys. Res. Comm., 123:1130-1137 (1984); Wood, et al., Pharmacol, Exp. Ther., 231:572-576 (1984)). Several experiments were performed previously to determine the nature of the modulation of [^35S]TBPS as affected by neuroactive steroids. […] Furthermore, these compounds have high potency and efficacy at the GRC, with stringent structural requirements for such activity.
The procedures for performing this assay are fully discussed in: (1) Gee, K. W. et al., European Journal of Pharmacology, 136:419-423 (1987)); and (2) Gee, et al., Molecular Pharmacology 30:218 (1986). These procedures were performed as follows:
Brains from male Sprague-Dawley rats were removed immediately following sacrifice and the cerebral cortices dissected over ice. A P2 homogenate was prepared as previously described (Gee, et al., Molecular Pharmacology 30:218 (1986)). Briefly, the cortices were gently homogenized in 032 M sucrose followed by centrifugation at 1000×g for 10 minutes. The supernatant was collected and centrifuged at 9000×g for 20 minutes. The resultant P2 pellet was suspended as a 10% (original wet weight/volume) suspension in 50 mM Na/K phosphate buffer (pH 7.4) 200 mM NaCl to form the homogenate.
One hundred microliter […] aliquots of the P2 homogenate (0.5 milligrams (mg) protein) were incubated with 2 nanomolar (nM) [^35S]TBPS (70-110 curies/millimole; New England Nuclear, Boston, Mass.) in the presence or absence of the naturally occurring steroids or their synthetic derivatives to be tested. The tested compounds were dissolved in dimethylsulfoxide (Baker Chem. Co., Phillipsburg, N.J.) and added to the incubation mixture in 5 μL aliquots. The incubation mixture was brought to a final volume of 1 mL with buffer. Non-specific binding was defined as binding in the presence of […]. The effect and specificity of GABA (Sigma Chem. Co., St. Louis, Mo.) was evaluated by performing all assays in the presence of GABA plus (+)bicuculline (Sigma Chem. Co.). Incubations maintained at 25° C. for 90 minutes (steady state conditions) were terminated by rapid filtration through glass fiber filters (No. 32, Schleicher and Schuell, Keene, N.H.). Filter-bound radioactivity was quantitated by liquid scintillation spectrophotometry. Kinetic data and compound/[^35S]TBPS dose-response curves were analyzed by nonlinear regression using a computerized iterative procedure to obtain rate constants and IC50 (concentration of compound at which half-maximal inhibition of basal [^35S]TBPS binding occurs) values.
Various compounds were screened to determine their potential as modulators of [^35S]TBPS binding in vitro. These assays were performed in accordance with the above discussed procedures. Based on these assays, we have established the structure-activity requirements for their specific interaction at the GRC and their rank order potency and efficacy. Experimental data obtained in this assay for a number of 3α-hydroxypregnan-20-one derivatives is discussed in Gee, K. W. et al., European Journal of Pharmacology, 136:419-423 (1987) and in U.S. Pat. No. 5,232,917. Table 1 provides IC50 and maximum inhibition (IMAX) measurements for numerous compounds, including examples of compounds disclosed and claimed herein. IC50 is defined as concentration of compounds to inhibit 50% of control [^35S]TBPS binding. It is an indication of a compound's in vitro potency. Maximum inhibition is an indication of a compound's in vitro efficacy.

[3] = IP, 50% hpbcd, 10 min before metrazol 85 mg/kg

SMILES: CC12CCC(O)(C#CCCO)CC1CCC1C2CCC2(C)C(C(=O)CSc3ccncc3)CCC12 (stereo not drawn) [3α-Hydroxy-3β-(4-hydroxybutynyl)-21-(pyrid-4-ylthio)-5β-pregnan-20-one]
- % Protected [1, 3]: 50%
- IC50 [2]: 0.015 µM
- IMAX (maximum inhibition) [2]: 100%

SMILES: COC1CCC2C3CCC4CC(O)(C#CCCO)CCC4(C)C3CCC12C (stereo not drawn) [3α-Hydroxy-3β-(4′-hydroxybutyn-1-yl)-17α-methoxy-5β-androstane]
- % Protected [1, 3]: 50%

SMILES: C#CC1(O)CCC2(C)C(CCC3C2CCC2(C)C(C(=O)CSCCCOS(=O)(=O)O)CCC32)C1 (stereo not drawn) [3β-Ethynyl-3α-hydroxy-21-thiopropanesulfate-5β-pregnan-20-one sodium salt]
- IC50 [2]: 0.113 µM
- IMAX (maximum inhibition) [2]: 104%

SMILES: CC(=O)[C@H]1CC[C@H]2[C@@H]3CC[C@H]4C[C@@H](O)CC[C@]4(C)[C@H]3CC[C@]12C [3β-Hydroxy-5α-pregnan-20-one, reference compound]
- IC50 [2]: > 1000 µM
- IMAX (maximum inhibition) [2]: 33%

SMILES: C#C[C@@]1(O)CC[C@@]2(C)[C@@H](CC[C@@H]3[C@@H]2CC[C@]2(C)[C@@H](C(=O)CSc4ccncc4)CC[C@@H]32)C1 [3β-ethynyl-3α-hydroxy-21-(pyrid-4-ylthio)-5α-pregnan-20-one]
- IC50 [2]: 0.043 µM
- IMAX (maximum inhibition) [2]: 103%

SMILES: C#C[C@@]1(O)CC[C@@]2(C)[C@H](CC[C@@H]3[C@@H]2CC[C@]2(C)[C@@H](C(=O)CSCCCO)CC[C@@H]32)C1 [3β-ethynyl-3α-hydroxy-21-hydroxypropylthio-5β-pregnan-20-one]
- IC50 [2]: 0.093 µM
- IMAX (maximum inhibition) [2]: 97%

SMILES: C#CC1(O)CCC2(C)C(CCC3C2CCC2(C)C(C(=O)CSCCOS(=O)(=O)O)CCC32)C1 (stereo not drawn) [3β-ethynyl-3α-hydroxy-21-thioethanesulfate-5β-pregnan-20-one trimethyl ammonium salt]
- IC50 [2]: 0.322 µM
- IMAX (maximum inhibition) [2]: 101%

SMILES: C#CC1(O)CCC2(C)C(CCC3C2CCC2(C)C(C(=O)CSCCCS(=O)(=O)O)CCC32)C1 (stereo not drawn) [3β-ethynyl-3α-hydroxy-21-thiopropanesulfonate-5β-pregnan-20-one sodium salt]
- IC50 [2]: 0.343 µM
- IMAX (maximum inhibition) [2]: 97%

SMILES: C#CC1(O)CCC2(C)C(CCC3C2CCC2(C)C(C(=O)CSCCC(=O)O)CCC32)C1 (stereo not drawn) [3β-ethynyl-3α-hydroxy-21-thiopropanoate-5β-pregnan-20-one sodium salt]
- IC50 [2]: 1.02 µM
- IMAX (maximum inhibition) [2]: 101%

SMILES: C[C@]12C[C@H](O)[C@H]3[C@@H](CCC4=CC(=O)CC[C@@]43C)[C@@H]1CC[C@@H]2C(=O)CO [4-Pregnan-11β,21-diol-3,20-dione, reference compound]
- IC50 [2]: > 1000 µM
- IMAX (maximum inhibition) [2]: 30%

SMILES: C[C@]12CC[C@@H]3c4ccc(O)cc4CC[C@H]3[C@@H]1CC[C@@H]2O [17β-Estradiol, reference compound]
- IMAX (maximum inhibition) [2]: 0%

SMILES: CC1(C2CCC3C4CCC5CC(O)(C(F)(F)F)CCC5C4CCC32C)OC(C(=O)[O-])C(C(=O)[O-])O1.[K+].[K+] (stereo not drawn) [20,20-[2′,3′-Bis(carboxy)ethylenedioxy]-3α-hydroxy-3β-trifuoromethyl-5β-19-norpregnane, dipotassium salt]
- % Protected ([1]; PO, 10% hpbcd): 25%

SMILES: COCC1(O)CCC2(C)C(CCC3C2CCC2(C)C(C(=O)CS(=O)(=O)c4ccc(F)cc4)CCC32)C1 (stereo not drawn) [21-(4′-fluorophenyl)sulfonyl-3α-hydroxy-3β-methoxymethyl-5α-pregnan-20-one]
- IC50 [2]: 0.049 µM
- IMAX (maximum inhibition) [2]: 99%

SMILES: COCC1(O)CCC2(C)C(CCC3C2CCC2(C)C(C(=O)CSc4ccc(F)cc4)CCC32)C1 (stereo not drawn) [21-(4′-fluorophenylthio)-3α-hydroxy-3β-methoxymethyl-5α-pregnan-20-one]
- IC50 [2]: 0.176 µM
- IMAX (maximum inhibition) [2]: 97%

SMILES: CC(C)CCC[C@@H](C)[C@H]1CC[C@H]2[C@@H]3CC=C4C[C@@H](O)CC[C@]4(C)[C@H]3CC[C@]12C [Cholesterol, reference compound]
- IMAX (maximum inhibition) [2]: 0%

SMILES: CC(=O)[C@H]1CC[C@H]2[C@@H]3CCC4=CC(=O)CC[C@]4(C)[C@H]3CC[C@]12C [Progesterone, reference compound]
- IC50 [2]: 5.2 µM
- IMAX (maximum inhibition) [2]: 100%

Source: patent US6780853B1, “Neuroactive steroids of the androstane and pregnane series” (priority 1995, dated 2004)
